This is an account of results in patent US7538084B2, “Cyclosporins” (AMR Technology, Inc., priority 2003, dated 2009).

One test relates to murine splenocytes. Kind of test: one-way mixed lymphocyte reaction (MLR) assay, murine. The format is cell-based, mouse. How it is done:
(§1) The MLR assay was designed to measure ^3H-thymidine uptake by human lymphocytes or murine splenocytes that are undergoing cell proliferation in an immune response to allogeneic stimulation. The murine system uses the H2 disparate inbred mouse strains: Balb/c (H2^d) and C57B1/6 (H2^b).
Initial screens were done at a fixed value of 100 ng/ml test compound.

The test system of a further test is human T-lymphocytes. The conditions noted are these: mixed lymphocyte reaction assay in human T-lymphocytes.
From the text: as §1

Take “Cyclosporin A Methyl Vinyl Ketone (IIIa) [Compound IIIa]”: the “IC50 (concentration inhibiting proliferation by 50% relative to control)” value with murine splenocytes (3H-thymidine uptake, Balb/c responder splenocytes, γ-irradiated C57B1/6 stimulators, 7 point concentration-response curves) amounted to 0.31 µg/mL. Further, the immunosuppressive activity entry with murine splenocytes (mixed lymphocyte reaction assay in murine splenocytes) and in the test on human T-lymphocytes was “significant immunosuppressive activity” in each case.
